Reference: US20260209152A1, “Substituted Hydroxystilbene Compounds and Derivatives, Synthesis and Uses Thereof” (Kynan Duke IP, LLC, priority 2019, published 2026)
Where two headings read alike, the source gives them in different places.

How the values were obtained:
Colon SW_480 = assay: CellTiter Glo cell viability assay; type: cell-based, human; details: for IC50: Homo sapiens
[1] = Cell viability in keratinocyte IL-8 assay (assay number 1244); type: cell-based, human; details: human, primary human keratinocytes induced with IL-17A and TNFα
Description: • 1. Determination of inhibition of CCL2 release from IL-4, IL-13, IL-22 and IFN-γ-stimulated primary human keratinocytes [assay number 1280] and determination of the effect on cell viability [assay number 1243]. • 2. Determination of inhibition of IL-8 release from IL-17A and TNFα-induced primary human keratinocytes [assay number 1250] and determination of the effect on cell viability [assay number 1244]. • 3. Determination of inhibition of IL-17A secretion from human PBMC stimulated with antiCD3/antiCD28-coated beads [assay number 1321] and determination of the effect on cell viability [assay number 1322]. • 4. Determination of inhibition of IL-4 and IL-2 secretion from human CD4-positive T-cells stimulated with antiCD2/antiCD3/antiCD28-coated beads [assay number 1297, 1298] and determination of the effect on cell viability [assay number 1299].

[2] = tested on: IL-17A secretion from human PBMC stimulated with antiCD3/antiCD28-coated beads; assay: PBMC IL-17 assay (assay number 1321); type: cell-based; details: for Max Eff.: IL-17 (1321): highest effect as percentage of control maximum effect
Procedure: Inhibition of IL-17A secretion from human PBMC stimulated with antiCD3/antiCD28-coated beads. LEO Pharma Open Innovation assay number 1321
The inflammatory skin disease psoriasis is characterized by cytokines IL-17A and TNFα. In the present assay, human peripheral blood mononuclear cells (PBMC) are stimulated with beads coated with antibodies against CD3 and CD28 to activate the T-cell receptor, and stimulated with IL-23 to promote T-helper17 activity. The cells are incubated for three days, then the secreted level of IL-17A is measured in the culture supernatant using AlphaLISA and the amount of living cells is measured by addition of resazurin (PrestoBlue®) to identify compounds that inhibit cell proliferation or viability. […] Compounds which inhibit IL-17A secretion may be expected to have efficacy in psoriasis.
• PBMC are isolated from fresh human buffy coats by centrifugation on Lymphoprep® following instructions from Sebmate® • Cells are spun down and resuspended in freezing medium (RPMI1640+20% FBS+5% DMSO) • Cells are frozen in aliquots of 8×10^7 cells/vial matching one 384 plate. Cells are placed in Coolcell box and placed in −80° C. freezer for one day. Vials are moved to the −150° C. freezer in a prechilled box.
• Prepare assay medium: RPMI1640+10% heat inactivated FBS and 1% pen/strep, supplemented with human IL-23, 20 ng/mL (R&D systems, cat no 1290-IL-010) • Test compounds: Prepare compound-containing source plate, i.e. titrations in DMSO to be transferred to the assay plate. • Add 70 nL compounds and controls from the source plate to the assay plate. • Thaw the cells by adding 1 vial to 20 ml warm assay medium • Centrifuge the cells down at 170 G in 10 minutes, remove the supernatant and resuspend in new medium. • Filter the cells though a 37 µm strainer. • Count the cells in the cell counter. • Beads (T Cell Activation/Expansion Kit-human, Miltenyi Biotech, cat. no. 130-091-441): Coat beads with antibodies (antiCD3 and antiCD28) according to the kit procedure. • Add the beads to the cells, one bead per cell, 2.1e+06 cells/ml. Use a pipette to mix the cells and beads carefully. • Seed the cell/bead mixture into the assay plate, 70 μL/well ([…]) • Place the plates in a humidity chamber with lid (24.5×24.5 cm box added H2O in the bottom). • Incubate plates at 37° C., 5% CO2/95% air for 3 days.
• IL-17A concentration in the supernatants is measured using an alphaLISA kit (Perkin Elmer, cat no. AL219F). • Pretest to find optima dilution of samples: Test 5 μL supernatant from control wells and run IL-17A alphaLISA assay with only 2 hours of incubation. • When data are available, remove assay plates from incubation and equilibrate to room temperature for 30 minutes. • Transfer 5 μL or corrected amounts of supernatant to a 384-proxy plate • Add 5 μL alphaLISA acceptor beads. • Incubate 1 hour at room temperature • Add 5 μL donor beads • Incubate overnight at room temperature protected from light. • Add 7 μL PrestoBlue reagent (resazurin)/well to the assay plate and incubated for 2-4 hours at 37° C./5% CO2. The fluorescence in the wells is measured (Ex615/Em 535).
IL-17A concentration in the supernatants is measured using an alphaLISA kit (Perkin Elmer, cat no. AL219F).
The capacity of the test compound to inhibit IL-17A release is normalized to the signal in the negative control wells treated with a toxic compound, Terfenadine.

Kidney ACHN = assay: CellTiter Glo cell viability assay; type: cell-based; details: Homo sapiens; ACHN/CRL-1611; 11 dilutions 3-0.00001 μM
[3] = SW480, 72 h, 3 Days of treatment, 18 2-fold dilutions 5-0.00003 μM, read-out: Average IC50
[4] = SW480/CCL-228, 11 dilutions 3-0.00001 μM, read-out: IC50
[5] = maximum reduction of cell viability in IL-8 assay, read-out: Max Eff.: Viab (1244)
[6] = inhibition of IL-17A secretion, human PBMC, read-out: Abs EC50: IL-17 (1321)
[7] = keratinocyte IL-8 assay, read-out: maximum reduction of cell viability

Compound	IC50 (Colon SW_480; [3]) [nM]	IC50 (Colon SW_480; SW480, 72 h, Day 3 upon drug treatment, 10 dosages 0.0001-20 μM, read-out: IC50) [nM]	IC50 (Colon SW_480; [4]) [nM]	cytotoxicity [1, 5] [%]	Max Eff.: IL-17 (1321) [2] [%]	EC50 [2, 6] [nM]	IC50 (Kidney ACHN) [nM]	Fold IC50 (Colon SW_480; IC50 of 1 [KYN-001] vs 8 [KYN-119], 3 Days)	cytotoxicity [1, 7] [%]	reduction of IL-17A release, in words [2]	EC50 ([2]; Homo sapiens, PBMC, read-out: EC50, inhibition of IL-17A secretion) [nM]	Emax ([2]; Homo sapiens, PBMC, read-out: maximum efficacy, IL-17A secretion) [%]
COc1cc(/C=C/c2cc(O)cc(OC)c2CC=C(C)C)ccc1O [Compound 1, (E)-3-(4-hydroxy-3-methoxystyryl)-5-methoxy-4-(3-methylbut-2-en-1-yl)phenol]	179	298	225	92	54	4430	241	–	–	–	–	–
CCOc1cc(O)cc(/C=C/c2ccc(NC(=O)C(=O)O)c(OC)c2)c1CC=C(C)C [Compound 35, (E)-2-((4-(3-Ethoxy-5-hydroxy-2-(3-methylbut-2-en-1-yl)styryl)-2-methoxyphenyl)amino)-2-oxoacetic acid]	–	–	–	72	19	5000	–	–	–	–	–	–
COc1cc(/C=C/c2cc(O)cc(OC)c2CC=C(C)C)ccc1NC(=O)CN [Compound 31, (E)-2-amino-N-(4-(5-hydroxy-3-methoxy-2-(3-methylbut-2-en-1-yl)styryl)-2-methoxyphenyl)acetamide]	–	–	–	100	53	4870	–	–	–	–	–	–
CCOc1cc(O)cc(/C=C/c2ccc(O)c(OC)c2)c1CC=C(C)C [Compound 8, (E)-3-Ethoxy-5-(4-hydroxy-3-methoxystyryl)-4-(3-methylbut-2-en-1-yl)phenol]	17.9	–	109	101	69	1550	75.7	10	–	–	–	–
CCOc1cc(O)cc(/C=C/c2ccc(O)c(O)c2)c1CC=C(C)C [Compound 20, (E)-4-(3-Ethoxy-5-hydroxy-2-(3-methylbut-2-en-1-yl)styryl)benzene-1,2-diol]	–	–	158	76	85	1650	83.4	–	–	–	–	–
COc1cc(/C=C/c2cc(O)cc(OC)c2CC=C(C)C)ccc1NC=O [Compound 27, (E)-N-(4-(5-hydroxy-3-methoxy-2-(3-methylbut-2-en-1-yl)styryl)-2-methoxyphenyl)formamide]	–	–	89.6	–	65	2120	26.7	–	83	significantly less effective	–	–
CCOc1cc(O)cc(/C=C/c2ccc(NC=O)c(OC)c2)c1CC=C(C)C [Compound 28, (E)-N-(4-(3-Ethoxy-5-hydroxy-2-(3-methylbut-2-en-1-yl)styryl)-2-methoxyphenyl)formamide]	–	–	30	–	73	526	18.8	–	81	low potency reduction of IL-17A release	526	73
